Test results from the NIST ThermoML archive (doi:10.1021/je501141e).
“And” between values parts separate entries of the source, which are not always exact repeats. Identical values can stand only once. ± gives the expanded uncertainty stated by the source.

Key:
[1] = 101.33 kPa, Liquid; for viscosity: Concentric cylinders viscometry; for speed of sound: Sing-around technique in a fixed-path interferometer; for mass density: Vibrating tube method
[2] = xn = mol fraction of the nth substance listed; details: 100 kPa, Liquid, Concentric cylinders viscometry, x2 = 0

| SMILES | viscosity ([1]; 293.15 K) [mPa·s] | speed of sound ([1]; 293.15 K) [m/s] | mass density ([1]; 293.15 K) [kg/m3] | viscosity ([1]; 303.15 K) [mPa·s] | speed of sound ([1]; 303.15 K) [m/s] | mass density ([1]; 303.15 K) [kg/m3] | viscosity ([1]; 313.15 K) | speed of sound ([1]; 313.15 K) [m/s] | mass density ([1]; 313.15 K) [kg/m3] | viscosity ([1]; 323.15 K) [mPa·s] | speed of sound ([1]; 323.15 K) [m/s] | mass density ([1]; 323.15 K) [kg/m3] | viscosity ([1]; 333.15 K) | speed of sound ([1]; 333.15 K) [m/s] | mass density ([1]; 333.15 K) [kg/m3] | viscosity ([1]; 343.15 K) | speed of sound ([1]; 343.15 K) [m/s] | mass density ([1]; 343.15 K) [kg/m3] | viscosity ([1]; 353.15 K) | mass density ([1]; 353.15 K) [kg/m3] | also measured |
| --- | --- | --- | --- | --- | --- | --- | --- | --- | --- | --- | --- | --- | --- | --- | --- | --- | --- | --- | --- | --- | --- |
| CC(CC(C)(C)C)CC(C)(C)CC(C)(C)C (configuration not stated) [2,2,4,4,6,8,8-heptamethylnonane] | 3.71 ± 0.03 | 1285.8 ± 1.4 | 784.48 ± 0.21 | 2.93 ± 0.03 | 1248.6 ± 1.4 | 777.78 ± 0.22 | 2.37 ± 0.03 mPa·s | 1212 ± 1.4 | 771.07 ± 0.22 | 1.95 ± 0.02 | 1176.2 ± 1.4 | 764.34 ± 0.22 | 1.64 ± 0.02 mPa·s | 1141 ± 1.4 | 757.59 ± 0.22 | 1.39 ± 0.02 mPa·s | 1106.5 ± 1.4 | 750.83 ± 0.22 | 1.19 ± 0.02 mPa·s | 743.9 ± 0.4 | viscosity ([1]; 363.15 K): 1.04 ± 0.02 mPa·s; mass density ([1]; 363.15 K): 737 ± 0.4 kg/m3; viscosity ([1]; 373.15 K): 0.91 ± 0.02 mPa·s and 0.913 ± 0.021 mPa·s; mass density ([1]; 373.15 K): 730.2 ± 0.4 kg/m3 |
| CC(CC(C)(C)C)CC(C)(C)C [2,2,4,6,6-pentamethylheptane] | 1.31 ± 0.02 | 1203.7 ± 1.3 | 745.21 ± 0.19 | 1.11 ± 0.02 | 1164.9 ± 1.3 | 737.93 ± 0.19 | 0.94 ± 0.02 mPa·s and 0.948 ± 0.021 mPa·s | 1126.7 ± 1.2 | 730.61 ± 0.19 | 0.82 ± 0.02 | 1089.3 ± 1.2 | 723.26 ± 0.19 | 0.715 ± 0.021 mPa·s and 0.71 ± 0.02 mPa·s | 1052.6 ± 1.2 | 715.86 ± 0.2 | 0.632 ± 0.021 mPa·s and 0.63 ± 0.02 mPa·s | 1016.5 ± 1.2 | 708.42 ± 0.2 | 0.562 ± 0.021 mPa·s and 0.56 ± 0.02 mPa·s | 700.7 ± 0.4 | viscosity ([1]; 363.15 K): 0.505 ± 0.021 mPa·s and 0.5 ± 0.02 mPa·s; mass density ([1]; 363.15 K): 693.1 ± 0.4 kg/m3; viscosity ([1]; 373.15 K): 0.459 ± 0.021 mPa·s and 0.45 ± 0.02 mPa·s; mass density ([1]; 373.15 K): 685.4 ± 0.4 kg/m3 |
| CC(CC(C)(C)C)CC(C)(C)C [2,2,4,6,6-pentamethylheptane] + CC(CC(C)(C)C)CC(C)(C)CC(C)(C)C | – | – | – | – | – | – | – | – | – | – | – | – | – | – | – | – | – | – | – | – | viscosity ([2]; 293.15 K): 1.31 ± 0.02 mPa·s; viscosity ([2]; 303.15 K): 1.11 ± 0.02 mPa·s; viscosity ([2]; 313.15 K): 0.948 ± 0.021 mPa·s; viscosity ([2]; 323.15 K): 0.82 ± 0.021 mPa·s; viscosity ([2]; 333.15 K): 0.715 ± 0.021 mPa·s; viscosity ([2]; 343.15 K): 0.632 ± 0.021 mPa·s; viscosity ([2]; 353.15 K): 0.562 ± 0.021 mPa·s; viscosity ([2]; 363.15 K): 0.505 ± 0.021 mPa·s; viscosity ([2]; 373.15 K): 0.459 ± 0.021 mPa·s |
